Among the data in US5451582A, “Benzodiazepine derivatives, compositions containing them and their use in therapy” (Merck Sharp & Dohme Ltd., priority 1992, dated 1995) are IC50 values, retold here.

One assay has as its target T1, CCK receptor (pancreas) (Rattus norvegicus, UniProt P30551).
T1 construct: The whole pancreas was dissected free of fat tissue and was homogenized; from tissue; host or cells: rat pancreas membranes (male Sprague-Dawley)
T1 sequence (P30551 1-444): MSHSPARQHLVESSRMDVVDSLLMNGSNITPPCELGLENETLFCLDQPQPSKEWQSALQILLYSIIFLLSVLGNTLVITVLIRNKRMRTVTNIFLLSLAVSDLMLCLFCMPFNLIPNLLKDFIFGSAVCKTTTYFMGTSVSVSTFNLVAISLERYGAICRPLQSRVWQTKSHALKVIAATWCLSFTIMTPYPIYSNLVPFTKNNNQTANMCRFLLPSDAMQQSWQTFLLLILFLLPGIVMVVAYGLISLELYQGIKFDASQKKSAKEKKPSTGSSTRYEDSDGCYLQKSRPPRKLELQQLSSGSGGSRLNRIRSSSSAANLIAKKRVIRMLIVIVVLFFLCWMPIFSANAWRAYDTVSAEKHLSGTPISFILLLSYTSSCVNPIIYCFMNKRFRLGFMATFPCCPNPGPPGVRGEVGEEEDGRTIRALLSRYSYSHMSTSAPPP
The assay can be described thus: CCK Receptor Binding (Pancreas), inhibition of 125I-CCK-8 binding. Further details: species or system rat (male Sprague-Dawley). To be noted: rat pancreas membranes; 50 pM 125I-CCK-8; pH 6.5; 25° C., 2 hours. As for the experimental part: 1. CCK Receptor Binding (Pancreas)
CCK-8 sulphated was radiolabelled with ^125 I-Bolton Hunter reagent (2000 Ci/mmole). Receptor binding was performed according to Chang and Lotti (Proc. Natl. Acad. Sci. 83, 4923-4926, 1986) with minor modifications.
Male Sprague-Dawley rats (150-200 g) were sacrificed by decapitation. The whole pancreas was dissected free of fat tissue and was homogenized in 25 volumes of ice-cold 10 mM N-2-hydroxyethyl-piperazine-N'-2-ethane sulphonic acid (HEPES) buffer with 0.1% soya bean trypsin inhibitor (pH 7.4 at 25° C.) with a Kinematica Polytron. The homogenates were centrifuged at 47,800 g for 10 min. Pellets were resuspended in 10 volumes of binding assay buffer (20 mM (HEPES)), 1 mM ethylene glycol-bis-(β-aminoethylether-N,N'-tetraacetic acid) (EGTA), 5 mM MgCl2, 150 mM NaCl, bacitracin 0.25 ml/ml, soya bean trypsin inhibitor 0.1 ml/ml, and bovine serum albumin 2 ml/ml pH 6.5 at 25° C.) using a Teflon (trademark) homogenizer, 15 strokes at 500 rpm. The homogenate was further diluted in binding assay buffer to give a final concentration of 0.5 ml original wet weight/1 ml buffer. For the binding assay, 50 μl of buffer (for total binding) or unlabelled CCK-8 sulphated to give a final concentration of 1 μM (for nonspecific binding) or the compounds of Formula I (for determination of inhibition of ^125 I-CCK-8 binding) and 50 μl of 500 pM ^125 I-CCK-8 (i.e. 50 pM final concentration) were added to 400 μl of the membrane suspensions in microfuge tubes. All assays were run in duplicate. The reaction mixtures were incubated at 25° C. for 2 hours and the reaction terminated by rapid filtration (Brandell 24 well cell harvester) over Whatman GF/C filters, washing 3×4 mls with ice-cold 100 Mm NaCl. The radioactivity on the filters was counted with a LKB gamma counter.
The preferred compounds of Formula I are those which produced dose-dependent inhibition of specific ^125 I-CCK-8 binding as defined as the difference between total and non-specific (i.e. in the presence of 1 μM CCK) binding. […]

A further assay deals with T2, CCK receptor (brain) (Cavia porcellus, UniProt H0VZC5).
T2 construct: the cortex was removed and homogenized in 25 mL ice-cold 0.32M sucrose; from tissue; host or cells: guinea pig cerebral cortex P2 membranes (male Hartley)
T2 sequence (H0VZC5 1-426): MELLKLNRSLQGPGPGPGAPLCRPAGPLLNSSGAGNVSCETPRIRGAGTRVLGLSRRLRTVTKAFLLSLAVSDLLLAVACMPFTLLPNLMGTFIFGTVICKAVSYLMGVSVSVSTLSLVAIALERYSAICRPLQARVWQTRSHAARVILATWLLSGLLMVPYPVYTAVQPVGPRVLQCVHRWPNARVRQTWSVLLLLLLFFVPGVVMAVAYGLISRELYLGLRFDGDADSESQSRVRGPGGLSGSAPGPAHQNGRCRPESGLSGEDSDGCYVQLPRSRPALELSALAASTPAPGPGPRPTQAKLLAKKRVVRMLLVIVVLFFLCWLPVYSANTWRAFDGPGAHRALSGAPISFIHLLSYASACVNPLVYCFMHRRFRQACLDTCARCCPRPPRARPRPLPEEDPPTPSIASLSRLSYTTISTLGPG
The assay can be described thus: CCK Receptor Binding (Brain), inhibition of 125I-CCK-8 binding. Further details: species or system guinea pig (male Hartley). The conditions noted are these: guinea pig cortex membranes; 50 pM 125I-CCK-8; pH 6.5; 25° C., 2 hours. As for the experimental part: 2. CCK Receptor Binding (Brain)
CCK-8 sulphated was radiolabelled and the binding was performed according to the description for the pancreas method with minor modifications.
Male Hartley guinea pigs (300-500 g) were sacrificed by decapitation and the cortex was removed and homogenized in 25 mL ice-cold 0.32M sucrose. The homogenates were centrifuged at 1000 g for 10 minutes and the resulting supernatant was recentrifuged at 20,000 g for 20 minutes. The P2 pellet was resuspended in binding assay buffer (20 mM HEPES, 5 mMMgCl2, 0.25 ml/ml bacitracin, 1 mM EGTA pH 6.5 at 25° C.), using a Teflon (trademark) homogenizer (5 strokes at 500 rpm) to give a final concentration of […] original wet weight/1.2 ml buffer. For the binding assay, 50 μl of buffer (for total binding) or unlabelled CCK-8 sulphated to give a final concentration of 1 μM (for nonspecific binding) or the compounds of Formula I (for determination of inhibition of ^125 I-CCK-8 binding) and 50 μl of 500 pM ^125 I-CCK-8 (i.e. final concentration of 50 pM) were added to 400 μl of the membrane suspensions in microfuge tubes. All assays were run in duplicate. The reaction mixtures were incubated at 25° C. for 2 hours and then the reaction was terminated by rapid filtration (Brandell 24 well cell harvester) on Whatman GF/C filters with 3×5 ml washes of cold 100 mM NaCl. The radioactivity on the filters was counted with a LKB gamma counter.
The preferred compounds of Formula I are those which produced dose-dependent inhibition of specific ^125 I-CCK-8 binding as defined as the difference between total and non-specific (i.e. in the presence of 1 μM CCK) binding.
Drug displacement studies were performed with at least 10 concentrations of compounds of Formula I and the IC50 values were determined by regression analysis IC50 refers to the concentration of the compound required to inhibit 50% of specific binding of ^125 I-CCK-8.

For `CC1=NC(NC(=O)Nc2cccc(-c3nn[nH]n3)c2)C(=O)N(C)c2ccccc21` (racemic) [Example 1, N-[3(R,S)-2,3-Dihydro-1,5-dimethyl-2-oxo-1H-1,4-benzodiazepin-3-yl]N'-[3-tetrazol-5-ylphenyl]urea], the IC50 on CCK receptor (pancreas) was more than 3 µM; at CCK receptor (brain), 0.104 µM.

Consider `CC(C)CN1C(=O)C(NC(=O)Nc2cccc(-c3nn[nH]n3)c2)N=C(C(C)C)c2ccccc21` (racemic) [Example 2, N-[3(R,S)-2,3-Dihydro-1-(2-methylpropyl)-2-oxo-5-(2-propyl) -1H-1,4-benzodiazepin-3-yl]N'-[3-tetrazol-5-ylphenyl]urea], for which the results for the IC50 at CCK receptor (pancreas) and on CCK receptor (brain) were 0.6 µM and 0.017 µM, respectively.

On to `CC(C)CN1C(=O)C(NC(=O)Nc2cccc(C(=O)NS(C)(=O)=O)c2)N=C(C(C)(C)C)c2ccccc21` (racemic) [Example 3, N-[3(R,S)-2,3-Dihydro-5-(1,1-dimethylethyl)-1-(2-methylpropyl) -2-oxo-1H-1,4-benzodiazepin-3yl]N'-(3-(methylsulphonylaminocarbonyl)phenyl]urea], for which the IC50 at CCK receptor (pancreas) turned out to be 0.612 µM; on CCK receptor (brain), 0.032 µM.
